Earlier results in US7799530B2, “Genetic polymorphisms associated with cardiovascular disorders and drug response, methods of detection and uses thereof” (Celera Corporation, priority 2005, dated 2010).

How the values were obtained:
rhabdomyolysis = conditions: in vivo; cited from earlier work
[1] = tested on: acute coronary events and LDL-C in subjects with average cholesterol levels; conditions: AFCAPS/TexCAPS; cited from earlier work

SMILES	rhabdomyolysis-related deaths (rhabdomyolysis)	LDL-C reduction (average) [1] [%]	decrease in events [1] [%]
COCc1c(C(C)C)nc(C(C)C)c(/C=C/[C@@H](O)C[C@@H](O)CC(=O)O)c1-c1ccc(F)cc1 [cerevastatin]	relatively high level of rhabdomyolysis-related deaths		
CC[C@H](C)C(=O)O[C@H]1C[C@@H](C)C=C2C=C[C@H](C)[C@H](CC[C@@H]3C[C@@H](O)CC(=O)O3)[C@H]21 [lovastatin]		25	37
